Experimental data as given in PMC12413448, “Atomic resolution structures of the methane-activating enzyme in anaerobic methanotrophy reveal extensive post-translational modifications” (Nature Communications, 2025).

Legend:
[1] = target: T1, MCR from ANME-2d^O (Methyl-Coenzyme M Reductase) (Candidatus Methanoperedens sp. BLZ2, UniProt Z9I9A7LEW2+Z9NDC8PKK5+Z9T835AYK6); assay: X-ray crystal structure, […] Å; type: binding; settings: as isolated, trapped in active site; reduced thiol
T1 construct: native purification from bioreactor enrichment; (alpha beta gamma)2 dimer of heterotrimers; seven native PTMs including 3(S)-methylhistidine 159 on gamma; full length
T1 sequence (Z9T835AYK6 1-562): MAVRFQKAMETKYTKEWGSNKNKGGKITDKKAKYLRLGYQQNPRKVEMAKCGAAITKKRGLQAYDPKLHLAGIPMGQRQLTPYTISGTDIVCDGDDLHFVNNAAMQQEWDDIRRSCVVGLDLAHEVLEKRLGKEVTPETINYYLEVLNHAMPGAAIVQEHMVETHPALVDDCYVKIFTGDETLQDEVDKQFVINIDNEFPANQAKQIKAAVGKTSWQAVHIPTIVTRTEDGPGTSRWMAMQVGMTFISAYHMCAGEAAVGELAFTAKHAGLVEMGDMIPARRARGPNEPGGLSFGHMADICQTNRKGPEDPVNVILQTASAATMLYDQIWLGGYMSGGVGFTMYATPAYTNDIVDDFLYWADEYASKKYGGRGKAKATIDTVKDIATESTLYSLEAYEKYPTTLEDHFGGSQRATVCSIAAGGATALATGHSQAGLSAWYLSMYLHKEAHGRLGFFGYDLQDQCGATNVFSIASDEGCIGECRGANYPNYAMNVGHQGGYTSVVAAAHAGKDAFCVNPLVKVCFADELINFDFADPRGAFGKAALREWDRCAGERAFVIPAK
T1 sequence (Z9NDC8PKK5 1-434): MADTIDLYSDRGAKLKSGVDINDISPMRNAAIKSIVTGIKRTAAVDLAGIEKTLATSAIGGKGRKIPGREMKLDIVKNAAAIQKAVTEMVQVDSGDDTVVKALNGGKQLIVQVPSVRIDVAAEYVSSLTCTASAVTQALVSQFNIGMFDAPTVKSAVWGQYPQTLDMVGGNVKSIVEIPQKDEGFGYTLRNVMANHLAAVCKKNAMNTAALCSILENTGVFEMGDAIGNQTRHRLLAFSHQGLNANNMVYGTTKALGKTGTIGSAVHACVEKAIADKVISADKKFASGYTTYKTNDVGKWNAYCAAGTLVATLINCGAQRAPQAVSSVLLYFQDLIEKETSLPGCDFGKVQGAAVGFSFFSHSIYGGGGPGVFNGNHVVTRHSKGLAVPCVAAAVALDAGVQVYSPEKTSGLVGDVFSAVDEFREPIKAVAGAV
T1 sequence (Z9I9A7LEW2 1-249): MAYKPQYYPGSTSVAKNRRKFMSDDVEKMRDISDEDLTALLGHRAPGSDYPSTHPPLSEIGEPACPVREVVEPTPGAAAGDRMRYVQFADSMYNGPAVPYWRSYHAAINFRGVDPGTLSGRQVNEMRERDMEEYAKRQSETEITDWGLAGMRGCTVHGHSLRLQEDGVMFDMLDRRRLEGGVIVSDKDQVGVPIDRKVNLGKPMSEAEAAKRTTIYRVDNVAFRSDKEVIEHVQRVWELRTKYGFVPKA

[2] = target: T2, MCR from ANME-2d^V (Methyl-Coenzyme M Reductase) (Candidatus Methanoperedens sp., UniProt Z9LNO2W1Q3+Z9MSE7NHP1+Z9ZZ61DSW2); assay: X-ray crystal structure, […] Å; settings: as isolated; mixture of ligands modelled in active site
T2 sequence (Z9MSE7NHP1 1-566): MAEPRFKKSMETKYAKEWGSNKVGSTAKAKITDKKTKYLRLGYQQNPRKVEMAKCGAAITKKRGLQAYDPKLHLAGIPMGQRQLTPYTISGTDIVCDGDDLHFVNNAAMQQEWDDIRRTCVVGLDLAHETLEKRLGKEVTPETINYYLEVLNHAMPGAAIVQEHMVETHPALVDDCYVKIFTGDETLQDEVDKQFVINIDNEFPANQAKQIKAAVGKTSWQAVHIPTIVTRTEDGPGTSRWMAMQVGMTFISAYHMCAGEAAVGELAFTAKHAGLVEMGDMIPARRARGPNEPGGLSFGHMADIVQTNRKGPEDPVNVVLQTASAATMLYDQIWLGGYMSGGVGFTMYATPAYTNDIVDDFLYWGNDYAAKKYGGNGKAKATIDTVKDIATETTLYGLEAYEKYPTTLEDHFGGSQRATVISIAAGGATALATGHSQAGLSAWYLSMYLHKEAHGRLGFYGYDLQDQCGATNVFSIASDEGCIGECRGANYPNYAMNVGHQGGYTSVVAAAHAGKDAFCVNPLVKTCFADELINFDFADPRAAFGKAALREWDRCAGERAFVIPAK
T2 sequence (Z9ZZ61DSW2 1-434): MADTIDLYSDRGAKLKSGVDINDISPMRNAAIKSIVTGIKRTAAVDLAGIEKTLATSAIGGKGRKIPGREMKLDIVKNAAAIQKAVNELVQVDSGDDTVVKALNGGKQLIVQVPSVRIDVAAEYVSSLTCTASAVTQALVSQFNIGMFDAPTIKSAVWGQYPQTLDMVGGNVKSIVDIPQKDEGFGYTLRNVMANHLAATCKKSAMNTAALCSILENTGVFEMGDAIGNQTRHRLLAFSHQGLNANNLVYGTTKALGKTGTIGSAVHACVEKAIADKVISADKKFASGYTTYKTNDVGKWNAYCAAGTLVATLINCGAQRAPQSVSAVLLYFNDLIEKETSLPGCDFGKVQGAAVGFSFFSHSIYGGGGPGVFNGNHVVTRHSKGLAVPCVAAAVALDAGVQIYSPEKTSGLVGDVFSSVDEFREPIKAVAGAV
T2 sequence (Z9LNO2W1Q3 1-249): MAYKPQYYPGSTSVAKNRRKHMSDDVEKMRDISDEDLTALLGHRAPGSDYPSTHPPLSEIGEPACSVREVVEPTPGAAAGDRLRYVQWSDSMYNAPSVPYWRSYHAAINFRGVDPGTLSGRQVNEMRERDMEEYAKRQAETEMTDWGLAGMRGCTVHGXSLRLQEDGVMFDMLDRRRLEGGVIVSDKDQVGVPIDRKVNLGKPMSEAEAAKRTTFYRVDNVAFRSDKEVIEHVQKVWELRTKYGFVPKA

Question: How did the “X-ray crystal structure, 0.98 Å” value [1] turn out when C[C@@H](OP(=O)(O)O)[C@H](NC(=O)CCCCCCS)C(=O)O [CoB-SH] was run?
Answer: The value was “MCRs from ANME-2c and ANME-2d^O contain reduced coenzymes trapped in the active site”.

Question: Which results are given for O=S(=O)(O)CCS [CoM-SH]?
Answer: X-ray crystal structure, 0.98 Å [1]: MCRs from ANME-2c and ANME-2d^O contain reduced coenzymes trapped in the active site; X-ray crystal structure, 0.98 Å [2]: optimal when the model included CoM-SH, CoB-SH, the heterodisulfide, and methyl-CoM

Question: Which “X-ray crystal structure, 0.98 Å” value [2] does the source give for C[C@@H](OP(=O)(O)O)[C@H](NC(=O)CCCCCCSSCCS(=O)(=O)O)C(=O)O [heterodisulfide] here?
Answer: Its value is “optimal when the model included CoM-SH, CoB-SH, the heterodisulfide, and methyl-CoM”.
